This assay has as its system HT-29 cells. The experiment in a line: HT29 cells 0FBS assay in vitro: TNF-α/SMAC mimetic/zVAD-FMK induced necroptosis, CellTiter-Glo cell viability (RIP1 inhibitory activity). The format is cell-based. Particulars: Homo sapiens, FBS free medium, TNF-α (10 ng/ml) + SMAC mimetic (6 uM) + zVAD-FMK (10 μM), 20 hours, geometric mean EC50. The essentials: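 HT-29 cells (5,000/well, overnight) switched to FBS-free McCOY's 5A with TNF-α (10 ng/ml), SMAC mimetic (6 uM) and zVAD-FMK (10 μM) to drive necroptosis, plus compound, for 20 hours at 37° C. Viability read by CellTiter-Glo luminescence; geometric mean EC50 from 10-point duplicate dose-response.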
`Cc1cc(F)cc(C2CC=NN2C(=O)N2CC(Oc3cc(-n4nc(C)c(C(N)=O)c4C)ncc3F)C2)c1` (centres unmarked) [Compound 118, 1-(5-fluoro-4-((1-(5-(3-fluoro-5-methylphenyl)-4,5-dihydro-1H-pyrazole-1-carbonyl)azetidin-3-yl)oxy)pyridin-2-yl)-3,5-dimethyl-1H-pyrazole-4-carboxamide]: the EC50 is 0.1 to 100 nM.
With `Cc1nn(C)c(C)c1-c1cc(OC2CN(C(=O)N3N=CC[C@H]3c3cc(F)cc(C#N)c3)C2)c(F)cn1` [Compound 47, (S)-3-fluoro-5-(1-(3-((5-fluoro-2-(1,3,5-trimethyl-1H-pyrazol-4-yl)pyridin-4-yl)oxy)azetidine-1-carbonyl)-4,5-dihydro-1H-pyrazol-5-yl)benzonitrile] the figure was 0.1 to 100 nM; with `CNC(=O)c1c(C)nn(-c2cc(OC3CN(C(=O)N4N=CC[C@H]4c4cccc(F)c4)C3)c(F)cn2)c1C` [Compound 79, (S)-1-(5-fluoro-4-((1-(5-(3-fluorophenyl)-4,5-dihydro-1H-pyrazole-1-carbonyl)azetidin-3-yl)oxy)pyridin-2-yl)-N,3,5-trimethyl-1H-pyrazole-4-carboxamide], 0.1 to 100 nM; with `Cc1cnn(C)c1-c1nc(OC2CN(C(=O)N3N=CC[C@H]3c3cncc(F)c3)C2)sc1C#N` [Compound 152, (S)-4-(1,4-dimethyl-1H-pyrazol-5-yl)-2-((1-(5-(5-fluoropyridin-3-yl)-4,5-dihydro-1H-pyrazole-1-carbonyl)azetidin-3-yl)oxy)thiazole-5-carbonitrile], 0.1 to 100 nM.
Take `Cc1c(C#N)nn(C)c1-c1cc(OC2CN(C(=O)N3N=CC[C@H]3c3cc(F)cc(C#N)c3)C2)c(F)cn1` [Compound 51, (S)-5-(4-((1-(5-(3-cyano-5-fluorophenyl)-4,5-dihydro-1H-pyrazole-1-carbonyl)azetidin-3-yl)oxy)-5-fluoropyridin-2-yl)-1,4-dimethyl-1H-pyrazole-3-carbonitrile]: the EC50 was 0.1 to 100 nM.
`Cc1cnc(C2CC=NN2C(=O)N2CC(Oc3cc(-c4c(C)cnn4C)ncc3F)C2)s1` (centres unmarked) [Compound 94, (3-((2-(1,4-dimethyl-1H-pyrazol-5-yl)-5-fluoropyridin-4-yl)oxy)azetidin-1-yl)(5-(5-methylthiazol-2-yl)-4,5-dihydro-1H-pyrazol-1-yl)methanone]: the EC50 was in the range of 0.1 to 100 nM.
For the compound `Cc1ncn(C)c1-c1cc(OC2CN(C(=O)N3N=CC[C@H]3c3cc(F)cc(C#N)c3)C2)c(F)cn1` [Compound 22, (S)-3-(1-(3-((2-(1,4-dimethyl-1H-imidazol-5-yl)-5-fluoropyridin-4-yl)oxy)azetidine-1-carbonyl)-4,5-dihydro-1H-pyrazol-5-yl)-5-fluorobenzonitrile], the EC50 was in the range of 0.1 to 100 nM.
On to `Cc1nc([C@H]2CC=NN2C(=O)N2CC(Oc3cc(-c4c(C)cnn4C)ncc3F)C2)cs1` [Compound 121, (R)-(3-((2-(1,4-dimethyl-1H-pyrazol-5-yl)-5-fluoropyridin-4-yl)oxy)azetidin-1-yl)(5-(2-methylthiazol-4-yl)-4,5-dihydro-1H-pyrazol-1-yl)methanone], for which the EC50 was 1000 to 10000 nM.
For the compound `Cc1nc(C2CC=NN2C(=O)N2CC(Oc3cc(-c4c(C)cnn4C)ncc3F)C2)cs1` (centres unmarked) [Compound 96, (3-((2-(1,4-dimethyl-1H-pyrazol-5-yl)-5-fluoropyridin-4-yl)oxy)azetidin-1-yl)(5-(2-methylthiazol-4-yl)-4,5-dihydro-1H-pyrazol-1-yl)methanone], the EC50 lay in the range of 0.1 to 100 nM.
Turning to `CNC(=O)c1c(C)nn(-c2cc(OC3CN(C(=O)N4N=CC[C@H]4c4ccccc4)C3)c(F)cn2)c1C` [Compound 78], the EC50 was in the range of 0.1 to 100 nM.
As for `Cc1nc(C2CC=NN2C(=O)N2CC(Oc3cc(-c4c(C)cnn4C)ncc3F)C2)c(C)s1` (centres unmarked) [Compound 128, (3-((2-(1,4-dimethyl-1H-pyrazol-5-yl)-5-fluoropyridin-4-yl)oxy)azetidin-1-yl)(5-(2,5-dimethylthiazol-4-yl)-4,5-dihydro-1H-pyrazol-1-yl)methanone], the EC50 lay within 100 to 1000 nM.
With `Cc1nn(-c2cc(OC3CN(C(=O)N4N=CC[C@H]4c4ccccc4)C3)c(F)cn2)c(C)c1C(=O)NCCO` [Compound 74, (S)-1-(5-fluoro-4-((1-(5-phenyl-4,5-dihydro-1H-pyrazole-1-carbonyl)azetidin-3-yl)oxy)pyridin-2-yl)-N-(2-hydroxyethyl)-3,5-dimethyl-1H-pyrazole-4-carboxamide] the figure was 0.1 to 100 nM.
Turning to `Cc1nn(-c2cc(OC3CN(C(=O)N4N=CC[C@@H]4c4cccc(F)c4)C3)c(F)cn2)c(C)c1C(N)=O` [Compound 98, (R)-1-(5-fluoro-4-((1-(5-(3-fluorophenyl)-4,5-dihydro-1H-pyrazole-1-carbonyl)azetidin-3-yl)oxy)pyridin-2-yl)-3,5-dimethyl-1H-pyrazole-4-carb oxamide], the EC50 lay within 1000 to 10000 nM.
As to `Cc1cc(-c2cc(OC3CN(C(=O)N4N=CC[C@H]4c4cncc(F)c4)C3)c(F)cn2)n(C)n1` [Compound 29, (S)-(3-((2-(1,3-dimethyl-1H-pyrazol-5-yl)-5-fluoropyridin-4-yl)oxy)azetidin-1-yl)(5-(5-fluoropyridin-3-yl)-4,5-dihydro-1H-pyrazol-1-yl)methanone], the EC50 was in the range of 0.1 to 100 nM.
For `Cc1cnc([C@H]2CC=NN2C(=O)N2CC(Oc3cc(-c4c(C)cnn4C)ncc3F)C2)s1` [Compound 137, (R)-(3-((2-(1,4-dimethyl-1H-pyrazol-5-yl)-5-fluoropyridin-4-yl)oxy)azetidin-1-yl)(5-(5-methylthiazol-2-yl)-4,5-dihydro-1H-pyrazol-1-yl)methanone], the EC50 lay in the range of 1000 to 10000 nM.
As to `Cc1nc(C2CC=NN2C(=O)N2CC(Oc3cc(-c4c(C)cnn4C)ncc3F)C2)co1` (centres unmarked) [Compound 90, (3-((2-(1,4-dimethyl-1H-pyrazol-5-yl)-5-fluoropyridin-4-yl)oxy)azetidin-1-yl)(5-(2-methyloxazol-4-yl)-4,5-dihydro-1H-pyrazol-1-yl)methanone], the EC50 is 0.1 to 100 nM.
`COc1ncccc1-c1ncc(F)c(OC2CN(C(=O)N3N=CC[C@H]3c3cc(F)cc(F)c3)C2)n1` [Compound 163, (S)-(5-(3,5-difluorophenyl)-4,5-dihydro-1H-pyrazol-1-yl)(3-((5-fluoro-2-(2-methoxypyridin-3-yl)pyrimidin-4-yl)oxy)azetidin-1-yl)methanone]: the EC50 lay within 0.1 to 100 nM.
Regarding `Cc1nc(C2CC=NN2C(=O)N2CC(Oc3cc(-c4c(C)cnn4C)c(F)cc3F)C2)cs1` (centres unmarked) [Compound 131, (3-(5-(1,4-dimethyl-1H-pyrazol-5-yl)-2,4-difluorophenoxy)azetidin-1-yl)(5-(2-methylthiazol-4-yl)-4,5-dihydro-1H-pyrazol-1-yl)methanone], the EC50 lay within 0.1 to 100 nM.
With `Cc1c(-c2cc(OC3CN(C(=O)N4N=CC[C@H]4c4cccc(F)c4)C3)c(F)cn2)nn(C)c1C(N)=O` [Compound 111, (S)-3-(5-fluoro-4-((1-(5-(3-fluorophenyl)-4,5-dihydro-1H-pyrazole-1-carbonyl)azetidin-3-yl)oxy)pyridin-2-yl)-1,4-dimethyl-1H-pyrazole-5-carb oxamide] the figure was 0.1 to 100 nM; with `Cc1cc(F)cc([C@@H]2CC=NN2C(=O)N2CC(Oc3cc(-n4nc(C)c(C(N)=O)c4C)ncc3F)C2)c1` [Compound 135, (S)-1-(5-fluoro-4-((1-(5-(3-fluoro-5-methylphenyl)-4,5-dihydro-1H-pyrazole-1-carbonyl)azetidin-3-yl)oxy)pyridin-2-yl)-3,5-dimethyl-1H-pyrazole-4-carboxamide], 0.1 to 100 nM.

The values are drawn from patent publication US20240294508A1, “RIP1 MODULATORS INCLUDING AZETIDINE CYCLIC UREAS, PREPARATIONS, AND USES THEREOF” (SIRONAX LTD., priority 2021, published 2024).
